This test has as its target T1, N-terminal Xaa-Pro-Lys N-methyltransferase 1 (Homo sapiens, UniProt Q9BV86).
T1 sequence (Q9BV86 whole entry): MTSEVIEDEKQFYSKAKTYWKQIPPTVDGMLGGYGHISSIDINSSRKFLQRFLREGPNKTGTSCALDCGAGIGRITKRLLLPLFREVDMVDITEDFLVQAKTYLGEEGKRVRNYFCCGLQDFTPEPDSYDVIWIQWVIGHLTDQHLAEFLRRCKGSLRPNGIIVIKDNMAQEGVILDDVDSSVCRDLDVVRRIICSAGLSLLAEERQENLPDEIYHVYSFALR
The test is described as follows: Inhibition of full length NTMT1 (1 to 222 residues) (unknown origin) expressed in Escherichia coli BL21 (DE3) using GPKRIA as substrate preincubated for 10 mins followed by substrate addition measured after 15 mins by microplate reader method.

Structures are written as SMILES.

As usually defined, the IC50 is the point on the concentration scale where inhibition reaches its midpoint.

Regarding `CC(C)(NC(=O)O[C@@H]1CN2CCC1CC2)c1csc(-c2ccc(Cl)cc2)n1`, the midpoint of inhibition, the IC50, lay at 0.91 µM.

The molecule `CC(C)(NC(=O)O[C@@H]1CN2CCC1CC2)c1csc(-c2ccc(C(F)(F)F)cc2)n1` displayed an IC50 of 3.2 µM.

The values above are taken from BindingDB's records for PubMed 36074125 (Purdue University, 2022).
